# Measurements taken from patent US20040219105A1, “Human hookworm model and method for maintaining human hookworm in a non-human primate” (priority 2003, published 2004).
# System: whole blood basophils
# Experiment: Whole blood basophil histamine release (Histamine Assay Kit)
# Assay type: cell-based, marmoset (Callithrix jacchus)
# Conditions: whole blood of hookworm-infected animals; 5 out of 6 animals
# Experimental: Furthermore, whole blood basophils collected from the animals were challenged for their ability to release histamine. One hundred (100) μl of whole blood was collected from the primates into heparinized tubes and the volume was made up to 500 μl using PIPES buffer (0.01 M Piperazine-N′N-bis[2-ethaneculfonic acid], 0.14 M sodium acetate, 5 mM potassium acetate, 0.1% glucose, 1 mM CaCl2 and 0.03% human serum albumin, pH 7.4). Spontaneous histamine release was assessed following incubation for 1 h at 37° C., while total histamine release was assessed when 50 μl of whole blood in 450 μl dH2O was freeze-thawed three times. […] Histamine released in each whole blood challenge was detected using a Histamine Assay Kit (Hycor Biomedical Ltd.). […] Antibody binding was visualised by the addition of 100 μl of 1 mg/ml of p-nitrophenyl phosphate (pNPP) substrate The plates were developed for 1 h at 37° C. and the absorbance measured at 405 nm using a Dynex MRX absorbance microplate reader (DYNEX Technologies, Chantilly, Va.). For all samples and calibrators the percentage binding was determined by the following: [formula]
# A standard curve was constructed by plotting the Percentage Binding against concentration for each histamine calibrator, and the levels of histamine in each challenge were determined from this curve.
substance,measurement,value
calreticulin,basophil histamine release,significant histamine release
